Patent US20250296959A1, “B7-H3 TARGETING PEPTIDES AND CONSTRUCTS THEREOF” (Mariana Oncology Inc., priority 2024, published 2025)
pKd: −log10 of the molar value. Like-named read-outs stand apart in the source and are kept apart here. Starred links: 1 amine or outer side, 2 acyl side, 3 side chain; linkers in the order of their positions; H or OH if unused. Positions of bridges follow the written chain, without caps; N, C: chain ends. Non-standard residues stand in square brackets, D forms with d. Residues, ends and D or L forms follow the SMILES beside them. Groups on a side chain read outwards from the residue. *: point of attachment. Ala(piperidin-4-yl) = O=C([C@H](CC1CCN([*:3])CC1)N[*:1])[*:2]; DOTA = O=C(O)CN1CCN(CC(=O)O)CCN(CC(=O)*)CCN(CC(=O)O)CC1; Phe(4-NHCONH2) = NC(=O)Nc1ccc(C[C@H](N)C(=O)O)cc1; Trp(5-F) = N[C@@H](Cc1c[nH]c2ccc(F)cc12)C(=O)O; Ala(4-THP) = N[C@@H](CC1CCOCC1)C(=O)O; X3 = O=C([C@H](CCC1CCC1)N[*:1])[*:2]; Val(3-OH) = CC(C)(O)[C@H](N)C(=O)O; PEG4 = NCCOCCOCCOCCOCCC(=O)O; Tle = CC(C)(C)[C@H](N)C(=O)O; hLeu = CC(C)CC[C@H](N)C(=O)O; Dab = NCC[C@H](N)C(=O)O

Experiments:
Calu-6 cell line [1] = assay: Cell associated (bound) fraction of [177Lu]Lu-labeled peptide in Calu-6 cells; format: cell-based, Human; settings: 1 hour, 37° C.
Method in brief: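 Detached B7-H3-expressing human lung cancer cells at 5 million/mL were exposed for 1 hour at 37 °C to 0.8 μCi of the 177Lu-labelled peptide, which was formulated in 1% PBSA after labelling at 80 °C, pH ~5. Supernatant and two cold washes counted as unbound, and resuspended cells gamma-counted as the cell-associated fraction.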

Calu-6 cell line [2] = assay: Net internalization of [177Lu]Lu-labeled peptide in Calu-6 cells; format: cell-based, Human; settings: 1 hour, 37° C., glycine pH 2.5 acid wash
Method in brief: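 Calu-6 cells, human non-engineered lung cancer expressing B7-H3, resuspended in 1% PBSA at 5 million cells/mL and incubated with the 177Lu-labeled conjugate (labeled at 80 °C, pH ~5, RP-HPLC checked). Gamma counting of the bound fraction, then of the pellet after two glycine pH 2.5 acid strips and NaOH lysis, gives internalized activity.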

human 4lg B7-H3 = target: T1, human 4lg B7-H3 (Homo sapiens, UniProt Q5ZPR3); assay: Affinity determination by surface plasmon resonance (SPR) to 4Ig B7-H3; settings: 4Ig B7-H3, 37° C. flow cell temperature
T1 sequence (Q5ZPR3 29-534): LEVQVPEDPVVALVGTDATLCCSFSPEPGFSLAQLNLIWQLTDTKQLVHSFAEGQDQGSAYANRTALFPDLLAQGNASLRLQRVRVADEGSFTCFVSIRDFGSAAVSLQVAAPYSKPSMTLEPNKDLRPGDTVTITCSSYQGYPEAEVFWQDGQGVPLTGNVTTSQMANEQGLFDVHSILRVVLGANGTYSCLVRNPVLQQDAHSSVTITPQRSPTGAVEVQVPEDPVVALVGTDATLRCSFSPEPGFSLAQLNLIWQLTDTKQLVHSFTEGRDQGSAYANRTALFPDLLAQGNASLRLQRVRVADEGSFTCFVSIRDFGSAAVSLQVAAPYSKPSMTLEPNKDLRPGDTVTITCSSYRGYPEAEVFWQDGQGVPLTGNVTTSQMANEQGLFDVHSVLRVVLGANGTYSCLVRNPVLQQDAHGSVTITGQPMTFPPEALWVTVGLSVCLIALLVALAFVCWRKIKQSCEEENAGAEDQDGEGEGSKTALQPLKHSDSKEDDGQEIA

| SMILES | % cell associated fraction (Calu-6 cell line [1]) | % net internalization (Calu-6 cell line [2]) | pKd (human 4lg B7-H3; SPR KD—37° C.) | pKd (human 4lg B7-H3; read-out: SPR KD—37° C.) |
| --- | --- | --- | --- | --- |
| CC(=O)N[C@@H](CCC(C)C)C(=O)N[C@@H](Cc1ccc(O)cc1)C(=O)N[C@H]1CSSC[C@@H](C(=O)N[C@@H](Cc2c[nH]c3ccc(F)cc23)C(=O)N[C@@H](Cc2ccccc2)C(=O)N[C@H](C(=O)N[C@H](CCCCNC(=O)CN2CCN(CC(=O)O)CCN(CC(=O)O)CCN(CC(=O)O)CC2)C(=O)O)C(C)(C)O)NC(=O)[C@H](Cc2ccc(O)cc2)NC(=O)[C@H](C(C)C)NC(=O)[C@H](CC(=O)O)NC(=O)[C@H](CC2CCOCC2)NC(=O)[C@H](CCN)NC(=O)CNC(=O)[C@H](C(C)(C)C)NC1=O [compound 371, Ac-hLeu-Y-C-Tbg-G-Dab-ThpA-D-V-Y-C-5FW-F-hydroxyVal-dLys(DOTA)-COOH] (Ac-[hLeu]YC[Tle]G[Dab][Ala(4-THP)]DVYC[Trp(5-F)]F[Val(3-OH)][dK](DOTA)-OH; disulfide 3-11) | B (25<%≤50) | A (%≤25) | > 9.00 | – |
| CC(=O)N[C@@H](CCC(C)C)C(=O)N[C@@H](Cc1ccc(O)cc1)C(=O)N[C@H]1CSSC[C@@H](C(=O)N[C@@H](Cc2c[nH]c3ccc(F)cc23)C(=O)N[C@@H](Cc2ccccc2)C(=O)N[C@H](C(N)=O)C(C)(C)O)NC(=O)[C@H](Cc2ccc(O)cc2)NC(=O)[C@H](C(C)C)NC(=O)[C@H](CC(=O)O)NC(=O)[C@H](CC2CCN(C(=O)CCOCCOCCOCCOCCNC(=O)CN3CCN(CC(=O)O)CCN(CC(=O)O)CCN(CC(=O)O)CC3)CC2)NC(=O)[C@H](CCCCN)NC(=O)CNC(=O)[C@H](C(C)(C)C)NC1=O [compound 383, Ac-hLeu-Y-C-Tbg-G-K-Pip(PEG4-DOTA)Ala-D-V-Y-C-5FW-F-hydroxyVal-CONH2] (Ac-[hLeu]YC[Tle]GK[Ala(piperidin-4-yl)]([PEG4-DOTA])DVYC[Trp(5-F)]F[Val(3-OH)]-NH2; disulfide 3-11) | B (25<%≤50) | B (25<%≤50) | – | > 9.00 |
| CC(=O)N[C@@H](CCC(C)C)C(=O)N[C@@H](Cc1ccc(O)cc1)C(=O)N[C@H]1CSSC[C@@H](C(=O)N[C@@H](Cc2c[nH]c3ccc(F)cc23)C(=O)N[C@@H](Cc2ccccc2)C(=O)N[C@H](C(=O)N[C@H](C)C(N)=O)C(C)(C)O)NC(=O)[C@H](Cc2ccc(O)cc2)NC(=O)[C@H](C(C)C)NC(=O)[C@H](CC(=O)O)NC(=O)[C@H](CC2CCOCC2)NC(=O)[C@H](CC2CCN(C(=O)CCOCCOCCOCCOCCNC(=O)CN3CCN(CC(=O)O)CCN(CC(=O)O)CCN(CC(=O)O)CC3)CC2)NC(=O)CNC(=O)[C@H](C(C)(C)C)NC1=O [compound 384, Ac-hLeu-Y-C-Tbg-G-Pip(PEG4-DOTA)Ala-ThpA-D-V-Y-C-5FW-F-hydroxyVal-dAla-CONH2] (Ac-[hLeu]YC[Tle]G[Ala(piperidin-4-yl)]([PEG4-DOTA])[Ala(4-THP)]DVYC[Trp(5-F)]F[Val(3-OH)][dA]-NH2; disulfide 3-11) | B (25<%≤50) | A (%≤25) | – | > 9.00 |
| CC(=O)N[C@@H](CCC(C)C)C(=O)N[C@@H](Cc1ccc(O)cc1)C(=O)N[C@H]1CSSC[C@@H](C(=O)N[C@@H](Cc2c[nH]c3ccc(F)cc23)C(=O)N[C@@H](Cc2ccccc2)C(=O)N[C@H](C(=O)N[C@H](C)C(N)=O)C(C)(C)O)NC(=O)[C@H](Cc2ccc(O)cc2)NC(=O)[C@H](C(C)C)NC(=O)[C@H](CC(=O)O)NC(=O)[C@H](CC2CCN(C(=O)CCOCCOCCOCCOCCNC(=O)CN3CCN(CC(=O)O)CCN(CC(=O)O)CCN(CC(=O)O)CC3)CC2)NC(=O)[C@H](CCCCN)NC(=O)CNC(=O)[C@H](C(C)(C)C)NC1=O [compound 385, Ac-hLeu-Y-C-Tbg-G-K-Pip(PEG4-DOTA)Ala-D-V-Y-C-5FW-F-hydroxyVal-dAla-CONH2] (Ac-[hLeu]YC[Tle]GK[Ala(piperidin-4-yl)]([PEG4-DOTA])DVYC[Trp(5-F)]F[Val(3-OH)][dA]-NH2; disulfide 3-11) | C (%>50) | B (25<%≤50) | – | > 9.00 |
| CC(=O)N[C@@H](CCC1CCC1)C(=O)N[C@@H](Cc1ccc(O)cc1)C(=O)N[C@H]1CSSC[C@@H](C(=O)N[C@@H](Cc2c[nH]c3ccc(F)cc23)C(=O)N[C@@H](Cc2ccccc2)C(=O)N[C@H](C(=O)N[C@H](CCCCNC(=O)CN2CCN(CC(=O)O)CCN(CC(=O)O)CCN(CC(=O)O)CC2)C(=O)O)C(C)(C)O)NC(=O)[C@H](Cc2ccc(O)cc2)NC(=O)[C@H](C(C)C)NC(=O)[C@H](CC(=O)O)NC(=O)[C@H](CC2CCOCC2)NC(=O)[C@H](CCCCN)NC(=O)CNC(=O)[C@H](C(C)(C)C)NC1=O [compound 398, Ac-hCba-Y-C-Tbg-G-K-ThpA-D-V-Y-C-5FW-F-hydroxyVal-dLys(DOTA)-COOH] (Ac-[X3]YC[Tle]GK[Ala(4-THP)]DVYC[Trp(5-F)]F[Val(3-OH)][dK](DOTA)-OH; disulfide 3-11) | B (25<%≤50) | A (%≤25) | – | > 9.00 |
| CC(=O)N[C@@H](CCC(C)C)C(=O)N[C@@H](Cc1ccc(O)cc1)C(=O)N[C@H]1CSSC[C@@H](C(=O)N[C@@H](Cc2c[nH]c3ccc(F)cc23)C(=O)N[C@@H](Cc2ccccc2)C(=O)N[C@H](C(=O)N[C@H](CO)C(N)=O)C(C)(C)O)NC(=O)[C@H](Cc2ccc(O)cc2)NC(=O)[C@H](C(C)C)NC(=O)[C@H](CC(=O)O)NC(=O)[C@H](CC2CCOCC2)NC(=O)[C@H](CC2CCN(C(=O)CCOCCOCCOCCOCCNC(=O)CN3CCN(CC(=O)O)CCN(CC(=O)O)CCN(CC(=O)O)CC3)CC2)NC(=O)CNC(=O)[C@H](C(C)(C)C)NC1=O [compound 407, Ac-hLeu-Y-C-Tbg-G-Pip(PEG4-DOTA)Ala-ThpA-D-V-Y-C-5FW-F-hydroxyVal-dSer-CONH2] (Ac-[hLeu]YC[Tle]G[Ala(piperidin-4-yl)]([PEG4-DOTA])[Ala(4-THP)]DVYC[Trp(5-F)]F[Val(3-OH)][dS]-NH2; disulfide 3-11) | C (%>50) | A (%≤25) | – | > 9.00 |
| CC(=O)N[C@@H](CCC(C)C)C(=O)N[C@@H](Cc1ccc(O)cc1)C(=O)N[C@H]1CSSC[C@@H](C(=O)N[C@@H](Cc2c[nH]c3ccc(F)cc23)C(=O)N[C@@H](Cc2ccccc2)C(=O)N[C@H](C(=O)N[C@H](CCCCNC(=O)CN2CCN(CC(=O)O)CCN(CC(=O)O)CCN(CC(=O)O)CC2)C(=O)O)C(C)(C)O)NC(=O)[C@H](Cc2ccc(NC(N)=O)cc2)NC(=O)[C@H](C(C)C)NC(=O)[C@H](CC(=O)O)NC(=O)[C@H](CC2CCOCC2)NC(=O)[C@H](CC2CCNCC2)NC(=O)CNC(=O)[C@H](C(C)(C)C)NC1=O [compound 427, Ac-hLeu-Y-C-Tbg-G-PipAla-ThpA-D-V-Aph(Cbm)-C-5FW-F-hydroxyVal-dLys(DOTA)-COOH] (Ac-[hLeu]YC[Tle]G[Ala(piperidin-4-yl)][Ala(4-THP)]DV[Phe(4-NHCONH2)]C[Trp(5-F)]F[Val(3-OH)][dK](DOTA)-OH; disulfide 3-11) | C (%>50) | B (25<%≤50) | – | > 9.00 |
